# Assay results as given in patent US9499565B2 (BEIJING XINTIANYU TECHNOLOGY DEVELOPMENT CO., LTD., priority 2012, dated 2016).
# Assay: Long-period stability test of powder injections
# Assay type: physicochemical
# Settings: placed at room temperature for 28 months
# Method: All contents and purities in the present invention are determined using high performance liquid chromatography (HPLC), and chromatography conditions are: filler: octadecylsilane chemically bonded silica; mobile phase: 0.005 mol/L tetrabutyl ammonium hydroxide-acetonitrile (70:30) with pH of 5.0 adjusted by acetic acid; flow rate: 1.5 mL per minute; detection wavelength: 230 nm. The number of theoretical plates should not be less than 3500, as calculated according to sulbactam peak, the separation degree of […] peak and sulbactam peak should meet the requirements, and before official HPLC determination, the precision, accuracy, linearity and range of each specific to-be-quantified substance are also required to be subjected to methodology validation.
substance,measurement,value
cocrystal of piperacillin sodium and sulbactam sodium [cocrystal A],content of piperacillin sodium,higher than 96.5%
same,content of sulbactam sodium,higher than 96.5%
same,total content of related substances,≤ 2%
